Assays:
Format in all cases: in vivo, rat
renal tubule cells [1] = assay: 3H-thymidine incorporation into kidneys after bilateral renal artery clamping (ischemic acute renal failure)
Protocol: (§1) Sprague Dawley rats (250-325 g) were anesthetized with a short-acting barbiturate, the abdominal cavity was exposed, and both left and right renal arteries were identified and clamped for 30 minutes. The clamps were released and perfusion to the kidneys reestablished. At time intervals of 24, 48, and 72 hours after ischemia and reperfusion, ^3 H-thymidine incorporation into kidneys, as well as blood urea nitrogen (BUN) and serum creatinine levels. To obtain a complete time course, some animals were allowed to recover for 7 days after renal ischemia and blood samples were then obtained daily for BUN or serum creatinine measurements.
(§2) This dose of EGF is substantially lower than those employed in previously reported studies that administered EGF systemically. At varying time points after reperfusion, measurements of ^3 H-thymidine incorporation into the kidneys and BUN, and serum creatinine levels were determined.

Male Sprague-Dawley rats [2] = assay: Histological score of tubule cell injury after HgCl2; details: 24 h after HgCl2; n=120 fields from 3 animals; P=NS vs non-EGF-treated
Protocol: Histological grading was assessed at 24 h, a time at which the peak of HgCl2 -induced toxic renal injury occurs and just before the accelerated regeneration repair phase. At 24 h, the mean histological scores in the inner cortex and outer stripe were 2.92±0.13 and 4.70±0.07, respectively, in the nephrotoxic non-EGF-treated rats vs. scores of 3.25±0.18 and 4.65±0.08, respectively, in the nephrotoxic EGF-treated rats (n=120 fields from 3 animals in each treatment group, P=NS for both scores). At 24 h after HgCl2, extensive necrosis was present in proximal tubule segments with no difference in the degree of tubule cell necrosis observed histologically between the EGF-treated and nontreated groups receiving HgCl2.

renal tubule cells [3] = assay: [3H] thymidine incorporation into renal cortex after HgCl2 (nephrotoxic acute renal failure); details: for [3H] Thymidine Incorporation: EGF 20 μg sc 2-4 h after nephrotoxin
Protocol: (§3) At time intervals of 24, 30, 48, and 72 hours after toxin administration, [^3 H] thymidine incorporation into renal cortex, as well as blood urea nitrogen (BUN) and serum creatinine levels, were determined with methods known and practiced in the art. To obtain a complete time course for the BUN and serum creatinine levels, some animals were allowed to recover for as long as 12 days after HgCl2 administration, and blood samples were obtained daily for BUN and serum creatinine levels.

Sprague Dawley rats = assay: BUN and serum creatinine time course after renal ischemia; details: single dose EGF within 1-1.5 hours of reperfusion after 30 minutes bilateral renal ischemia; entire 7-day period
Protocol: as §1, §2

renal tubule cells [4] = assay: Histoautoradiography of [3H] thymidine labeled kidney cells after HgCl2
Protocol: as §3
Histoautoradiographic studies were performed to determine the type of cells labeled with [^3 H] thymidine after HgCl2 exposure. Kidney sections from rats at 48 or 72 h after toxic administration were used for histoautoradiographic analysis. Labeling was confined to the nuclei. On average, 97.9% of the labeled cells were tubule cells, and 2.1% of the labeled cells were interstitial cells in the 60 examined fields. In control rats undergoing sham injection, 98.4% of labeled cells were tubule, and 1.6% were interstitial in 90 examined fields.

renal tubule cells [5] = assay: Histoautoradiography of 3H-thymidine labeled kidney cells after renal ischemia
Text: To localize and identify the cells incorporating the radiolabeled thymidine within the kidney, histoautoradiography of kidney samples was also accomplished. For quantitative evaluation, a computerized operator-interactive system was used. Sections were examined at 276 magnification, and 10-15 fields were counted in the cortex and outer and inner stripes of the outer medulla in each section for an individual animal. The cell type of the labeled cells was identified as either tubular or interstitial.
At varying time points after reperfusion, measurements of ^3 H-thymidine incorporation into the kidneys and BUN, and serum creatinine levels were determined.

Male Sprague-Dawley rats [6] = assay: BUN and serum creatinine time course after HgCl2 (nephrotoxic acute renal failure)
Protocol: as §3

[7] = EGF-treated rats, 48 h after HgCl2 injection, 60 fields
[8] = EGF-treated postischemic rats at 24 hours
[9] = postischemic kidneys at 24 hours after EGF administration
[10] = peak at 3 days after HgCl2 injection, EGF 20 μg sc, P<0.001 vs nontreated

**Q.** With epidermal growth factor [EGF] as the substance, how does the “3H-thymidine incorporation, sham ischemia” value (renal tubule cells [1]; EGF treatment of rats undergoing sham ischemia, P=NS, n=3) read?
**A.** The value was “did not show any increase”.

**Q.** What about the “renal thymidine incorporation compared with control nontreated ischemia values” (renal tubule cells [1]; single dose EGF 1-1.5 hours after reperfusion, 24, 48, 72 hours of reperfusion after 30 minutes bilateral renal artery clamping) of the same substance?
**A.** Its value is “significantly increased renal thymidine incorporation”.

**Q.** What about the “mean histological score, inner cortex” value (Male Sprague-Dawley rats [2]) of the same substance?
**A.** Its value is 3.25±0.18.

**Q.** What about the “mean histological score, outer stripe” value (Male Sprague-Dawley rats [2]) of the same substance?
**A.** The value was 4.65±0.08.

**Q.** What about the “[3H] Thymidine Incorporation” value (renal tubule cells [3]; 0 h, rats given 5 mg/kg HgCl2, mean (SE 0.03 printed)) of the same substance?
**A.** The value was 0.12 dpm × 10^4 /mg DNA.

**Q.** What about the “[3H] Thymidine Incorporation” value (renal tubule cells [3]; 24 h after 5 mg/kg HgCl2, mean (SE 1.28 printed)) of the same substance?
**A.** The value was 13.81 dpm × 10^4 /mg DNA.

**Q.** And the “[3H] Thymidine Incorporation” value (renal tubule cells [3]; 48 h after 5 mg/kg HgCl2, mean (SE 19.52 printed))?
**A.** Its value is 80.52 dpm × 10^4 /mg DNA.

**Q.** What about the “[3H] Thymidine Incorporation” value (renal tubule cells [3]; 72 h after 5 mg/kg HgCl2, mean (SE 13.80 printed)) of the same substance?
**A.** The value was 116.24 dpm × 10^4 /mg DNA.

**Q.** And the “renal thymidine incorporation compared with non-EGF-treated animals receiving the nephrotoxin” value (renal tubule cells [3]; single dose EGF 2 or 4 h after HgCl2, at 24, 30, 48 and 72 h)?
**A.** The value was “higher rates of renal thymidine incorporation”.

**Q.** What about the “BUN levels of EGF-treated animals” value (Sprague Dawley rats) of the same substance?
**A.** The value was “significantly lower”.

**Q.** And the “creatinine levels of EGF-treated animals” value (Sprague Dawley rats)?
**A.** Its value is “significantly lower”.

**Q.** And the “number of tubule cells incorporating [3H] thymidine” value (renal tubule cells [4]; 24 h after HgCl2, renal cortex and outer medulla, n=3 rats and 60 fields, P<0.02 vs nontreated)?
**A.** The value was 7.5±1.8 labeled cells/field.

**Q.** And the “number of labeled tubule cells” value (renal tubule cells [4]; 48 h after HgCl2, renal cortex and outer medulla, n=3 rats and 60 fields)?
**A.** Its value is 20.9±2.1 cells/field.

**Q.** What about the “labeled cells identified as interstitial cells” value (renal tubule cells [4]; [7]) of the same substance?
**A.** Its value is 3.7%.

**Q.** And the “labeled cells identified as tubule” value (renal tubule cells [4]; [7])?
**A.** The value was 96.3%.

**Q.** What about the “labeled cells identified as interstitial cells” value (renal tubule cells [5]; [8]) of the same substance?
**A.** The value was 1.9%.

**Q.** What about the “labeled cells identified as tubule” value (renal tubule cells [5]; [8]) of the same substance?
**A.** The value was 98.1%.

**Q.** What about the “labeled interstitial cells, absolute number” value (renal tubule cells [5]; [8]) of the same substance?
**A.** The value was 61.

**Q.** And the “labeled tubule cells, absolute number” value (renal tubule cells [5]; [8])?
**A.** The value was 3,183.

**Q.** What about the “distribution of labeled tubule cells: cortex” value (renal tubule cells [5]; [9]) of the same substance?
**A.** The value was 27%.

**Q.** And the “distribution of labeled tubule cells: outer stripe of the outer medulla” value (renal tubule cells [5]; [9])?
**A.** The value was 68%.

**Q.** What about the “return to near normal BUN and serum creatinine, earlier than in non-EGF-treated animals” value (Male Sprague-Dawley rats [6]; after HgCl2) of the same substance?
**A.** The value was 4 days.

**Q.** And the “return to near normal BUN and serum creatinine levels” value (Male Sprague-Dawley rats [6]; day after HgCl2 administration)?
**A.** The value was 8 days.

**Q.** And the “peak BUN level” value (Male Sprague-Dawley rats [6]; [10])?
**A.** Its value is 213 ± 23 mg/dL.

**Q.** What about the “peak serum creatinine level” value (Male Sprague-Dawley rats [6]; [10]) of the same substance?
**A.** Its value is 6.54 ± 0.72 mg/dL.
